Experimental data reported in patent US20030003579A1, “Dendritic cells; methods” (priority 2000, published 2003).

Assays:
[1] = test system: pre-DC2; test: Cytokine production by pre-DC2, ELISA of supernatants; format: cell-based, human; conditions: 24 h
Protocol: (§1) Underlines indicate palindromic sequences. ODNs 1668, 2117, and 2006 are phosphorothioate forms, and ACC-30, AAC-30, and GAC-30 are phosphodiester forms. The phosphorothioate ODNs were added at 0 h at 0.1 μM or 1 μM, and the phosphodiester ODNs were added at 0, 4, and 16 h, 5 μM at each time point, to compensate for their degradation by deoxyribonuclease activity in media.
(§2) Monocytes, CD11c^+ DC, and pre-DC2 were isolated from human peripheral blood. See Grouard, et al. (1997) J. Exp'l Med. 185:1101-1111; and Kadowaki, et al. (2000) J. Exp'l Med. 192:219-226. The cells were cultured for 24 h in RPMI1640 containing 10% FCS at 2×10^4/200 μl in round-bottom 96-well culture plates in the presence of ODNs or 50 μg/ml poly I:C (Sigma). Adult dermal fibroblasts (Clonetics) were maintained as recommended by the company, and were stimulated with 50 μg/ml poly I:C for 24 h at 7.5×10^4/ml in 12-well culture plates.
(§3) An IFN-α ELISA kit, an IL-12 ELISA kit (Biosource International), and an IFN-β ELISA kit (FUJIREBIO) were used to analyze cytokine production.
(§4) It was examined whether CpG ODNs and poly I:C induce pre-DC2 to produce IFN-α. Cells were stimulated with various CpG ODNs (2117, 2006, 1668: 1 μM, ACC-30, AAC-30, GAC-30: 5 μM) for 24 h, and the concentrations of IFN-α in the supernatants were measured by ELISA. Typically, cytokine is accumulated from cultures of about 2×10^4 cells in 200 μl cultured for 24 h. […] In contrast, AAC-30 and GAC-30 induced pre-DC2 to produce large amounts of IFN-α (AAC-30 508-1806 pg/ml, GAC-30 931-1362 pg/ml). ACC-30 induced pre-DC2 to produce much smaller amounts of IFN-α (18-161 pg/ml). None of the CpG ODNs used here induced CD11c^+ DC and monocytes to produce detectable levels of IFN-α.

[2] = test system: pre-DC2; test: Viability of pre-DC2 by propidium iodide staining and flow cytometry; format: cell-based, human; conditions: 24 h culture
Protocol: as §1, §2
IV. Analysis of viability of pre-DC2 stimulated with ODNs or poly I:C Pre-DC2 cultured for 24 h without stimulation or with ODNs or poly I:C were stained with propidium iodide, and were analyzed with a FACScan® flow cytometer (Becton Dickinson). After cell debris was excluded by an appropriate forward scatter threshold, the percentages of propidium iodide-negative cells were calculated.
Pre-DC2 were cultured for 24 h without stimulation, with the indicated ODNs, or with 50 μg/ml poly I:C. ACC-30, AAC-30, and GAC-30 were added at 5 μM. After cell debris was excluded by an appropriate forward scatter threshold, the percentages of propidium iodide-negative cells were measured by flow cytometry

[3] = test system: CD11c^+ DC; test: Cytokine production by CD11c+ DC, ELISA of supernatants; format: cell-based, human; conditions: 24 h
Protocol: as §1, §2, §3, §4

[4] = test system: pre-DC2; test: Flow cytometric analysis of CD80 and CD86 expression on pre-DC2; format: cell-based, human; conditions: for expression of CD80 and CD86 on pre-DC2: 5 μM phosphodiester ODN, 24 h
Protocol: as §1, §2
(§5) Freshly isolated pre-DC2 and pre-DC2 stimulated with ODNs for 24 h were stained with PE-conjugated anti-CD80 (L307.4, Becton Dickinson), PE-conjugated anti-CD86 (2331, Pharmingen), or an isotype control antibody. CD11c^+ DC cultured for 24 h without stimulation or with poly I:C were stained with FITC-conjugated anti-CD80 (L307.4), FITC-conjugated anti-CD86 (2331), or an isotype control antibody. The cells were analyzed with a FACScan® flow cytometer. Dead cells were excluded by staining with propidium iodide.
Freshly isolated pre-DC2 and pre-DC2 cultured with the CpG ODNs for 24 h were stained with PE-conjugated anti-CD80 or anti-CD86 mAbs. The upregulation of CD80 and CD86 expression on pre-DC2 is a hallmark of their differentiation into DC. Grouard, et al. (1997) J. Exp'l Med. 185:1101-1111; and Kadowaki, et al. (2000) J. Exp'l Med. 192:219-226.

[5] = test system: monocytes; test: Cytokine production by monocytes, ELISA of supernatants; format: cell-based, human; conditions: 24 h; for IFN-α production by monocytes: CpG ODNs (2117, 2006, 1668: 1 μM; ACC-30, AAC-30, GAC-30: 5 μM)
Protocol: as §1, §2, §3, §4

[6] = test system: CD11c^+ DC; test: Flow cytometric analysis of CD80 and CD86 expression on CD11c+ DC; format: cell-based, human; conditions: 50 μg/ml poly I:C, 24 h culture
Protocol: as §2, §5
CD11c^+ DC cultured for 24 h without stimulation or with 50 μg/ml poly I:C were stained with FITC-conjugated anti-CD80 or anti-CD86 mAbs. […] Cella, et al. (1999) J. Exp'l Med. 189:821-829; and Verdijk, et al. (1999) J. Immunol. 163:57-61. […]

[7] = test system: Adult dermal fibroblasts; test: IFN-β production by poly I:C stimulated fibroblasts, ELISA; format: cell-based; conditions: 50 μg/ml poly I:C, 24 h, 7.5×10^4/ml
Protocol: as §2, §3

[8] = 5 μM ODN, about 2×10^4 cells in 200 μl
[9] = 5 μM phosphodiester ODN added at 0, 4 and 16 h
[10] = CpG ODNs (2117, 2006, 1668: 1 μM; ACC-30, AAC-30, GAC-30: 5 μM)

ACC-30: oligodeoxynucleotide ACCGATACCGGTGCCGGTGACGGCACCACG (DNA, all phosphodiester, methylation of C not given here)
IFN-α production by pre-DC2 [1, 8]: 18 to 161 pg/mL
survival of pre-DC2 (propidium iodide-negative cells) [2, 9]: less efficient

AAC-30: palindromic CpG oligodeoxynucleotide ACCGATAACGTTGCCGGTGACGGCACCACG (DNA, all phosphodiester, methylation of C not given here)
IFN-α production by pre-DC2 [1, 8]: 508 to 1806 pg/mL
survival of pre-DC2 (propidium iodide-negative cells) [2, 9]: maintained the survival of pre-DC2
IFN-α production by CD11c+ DC [3, 10]: did not produce detectable levels of IFN-α
expression of CD80 and CD86 on pre-DC2 [4]: upregulated CD80 and CD86, albeit to a lesser extent than 2006 and 2117
IFN-α production by monocytes [5]: did not produce detectable levels of IFN-α

GAC-30: palindromic CpG oligodeoxynucleotide ACCGATGACGTCGCCGGTGACGGCACCACG (DNA, all phosphodiester, methylation of C not given here)
IFN-α production by pre-DC2 [1, 8]: 931 to 1362 pg/mL
survival of pre-DC2 (propidium iodide-negative cells) [2, 9]: maintained the survival of pre-DC2
IFN-α production by CD11c+ DC [3, 10]: did not produce detectable levels of IFN-α
expression of CD80 and CD86 on pre-DC2 [4]: upregulated CD80 and CD86, albeit to a lesser extent than 2006 and 2117
IFN-α production by monocytes [5]: did not produce detectable levels of IFN-α

polyinosinic polycytidylic acid [poly I:C]
IFN-α production by pre-DC2 ([1]; 50 μg/ml poly I:C): did not induce pre-DC2 to produce a detectable level of IFN-α
survival of pre-DC2 (propidium iodide-negative cells) ([2]; 50 μg/ml poly I:C): did not maintain the survival of pre-DC2
expression of CD80 and CD86 on CD11c+ DC [6]: strongly upregulated
IFN-α production by CD11c+ DC ([3]; 50 μg/ml poly I:C): 24.1 to 97.9 pg/mL
IFN-β production by CD11c+ DC ([3]; 50 μg/ml poly I:C): 33.6 to 166.5 pg/mL
IL-12 production by CD11c+ DC ([3]; 50 μg/ml poly I:C): 17.7 to 137.7 pg/mL
differentiation of pre-DC2 into DC ([4]; poly I:C): does not stimulate pre-DC2 to survive and to differentiate into DC
IFN-β production by monocytes ([5]; 50 μg/ml poly I:C): but not pre-DC2 or monocytes
IFN-β production by fibroblasts [7]: 28.6 to 48.5 pg/mL

1668: CpG oligodeoxynucleotide TCCATGACGTTCCTGATGCT (DNA, all phosphorothioate, methylation of C not given here) [compound 1668]
IFN-α production by pre-DC2 ([1]; 1 μM ODN, about 2×10^4 cells in 200 μl): did not induce pre-DC2 to produce detectable levels of IFN-α
survival of pre-DC2 (propidium iodide-negative cells) ([2]; 1 μM phosphorothioate ODN): did not maintain the survival of pre-DC2
